Assay results published in patent publication US20220016125A1, “RIBOFLAVIN FOR TREATING COLLAGENOUS TISSUES IN THE DISEASES OF JOINTS, PARTICULARLY OF INVERTEBRAL DISCS” (Albert-Ludwigs-Universitat Freiburg, priority 2018, published 2022).

Assays:
[1] = system: collagen fibers in the transition zone between the annulus fibrosus and nucleus pulposus; test: Riboflavin/UV crosslinking of collagen fibers in bovine intervertebral disc cryosections, autofluorescence microscopy; conditions: 10 bovine samples, 0.6 mm slices; 0.1 mL of 0.25% riboflavin solution twice at 30 s interval; UV 370 nm, 9 mW/cm^2, two minutes
Method: (§1) Five freshly frozen bovine intervertebral discs and two freshly frozen human intervertebral discs from the Anatomy department of the University of Freiburg were used for the experiments (see FIG. 6).
(§2) The intervertebral discs were thinly cut into 0.6 mm thick slices using a cryomicrotome and placed on glass plates (see FIG. 7). The thin discs arise from the transition zone between the annulus fibrosus and nucleus pulposus, which is indicated by a rectangle in FIG. 6.
(§3) A total of 10 bovine and 10 human samples were prepared and examined for the experiments.
(§4) Before treatment with riboflavin, the samples were imaged by autofluorescence microscopy to visualize the collagen fibers. The architecture, orientation and crosslinking density of the collagen fibers in the samples before treatment are shown in FIGS. 9 a) and 10 a).
(§5) To crosslink the collagen fibers, 0.1 mL of a riboflavin solution at a concentration of 0.25% was administered twice at a time interval of 30 seconds. The sample was then irradiated with UV light.
(§6) A UV radiation source with an average wavelength of 370 nm (365-375 nm) was used to irradiate the samples. […]
(§7) After the treatment, the collagen fibers were reimaged using autofluorescence microscopy in order to visualize the identical sample area. This allows changes in the crosslinking density of the collagen fibers to be detected.

[2] = system: collagen fibers in the transition zone between the annulus fibrosus and nucleus pulposus; test: Riboflavin/UV crosslinking of collagen fibers in human intervertebral disc cryosections, autofluorescence microscopy; conditions: 10 human samples, 0.6 mm slices; 0.1 mL of 0.25% riboflavin solution twice at 30 s interval; UV 370 nm, 9 mW/cm^2, two minutes
Method: as §1, §2, §3, §4, §5, §6, §7

[3] = system: bovine intervertebral discs; test: Young's modulus of fresh bovine intervertebral discs before and after UV irradiation (Biomomentum Mach-1); conditions: 8 mM riboflavin (riboflavin 5′-phosphate sodium salt hydrate) in PBS, 15 min soak, 365 nm UVA, 3.5 mW/cm^2, 15 minutes
Method: For the characterization, Young's modulus or modulus of elasticity (Akhtar et. Al 2011) was determined locally on an established device (Biomomentum Mach-1 Biomomentum Inc.; Sim et al. 2014).
Fresh bovine tails were provided from the local meat processing plant within 2 hours of slaughter. The paravertebral structure was removed (FIG. 11).
Bovine intervertebral discs (IVDs), which are attached to the vertebral body, were isolated (FIG. 12).
In order to stabilize the samples on the device, the bovine vertebral bodies with attached intervertebral discs were fixed in PMMA bone cement (FIG. 13).
With the aid of the camera of the Biomomentum device, the surface of the bovine intervertebral discs was measured with respect to their biomechanical properties (Young's modulus) (FIG. 14).
A solution with 8 mM riboflavin (riboflavin 5′-phosphate sodium salt hydrate, Sigmaaldrich) in PBS (phosphate buffered saline solution) and pH: 7.4 water (Thermofisher) was used to soak the exposed surface of the bovine intervertebral discs for 15 minutes (dark mode). Immediately afterwards, the samples were placed in the Biomomentum device for analysis (dark mode).
After the analysis, the same sample was irradiated homogeneously with 365 nm UVA light (Opsytech Dr. Groebel-UV LED series L) at 3.5 mW/cm^2 for 15 minutes. A second analysis of the previously measured positions followed.
A total of 38 measurements were carried out on 15 healthy bovine intervertebral discs.
The percentage stiffening corresponds to the percentage increase in Young's modulus after UV irradiation, compared to the value measured before UV irradiation.

[4] = compared to value before UV irradiation

With `Cc1cc2nc3c(=O)[nH]c(=O)nc-3n(C[C@H](O)[C@H](O)[C@H](O)CO)c2cc1C` [riboflavin, 7,8-dimethyl-10-(D-ribit-1-yl)-isoalloxazine] the “crosslinking density of the collagen fibers” value [1] was “visually evident increase in the crosslinking density”, the “crosslinking density of the collagen fibers” value [2] was “visually evident increase in the crosslinking density” and the “elastic properties (Young's modulus) after UV irradiation” value ([3]; 38 measurements on 15 discs) was “Stiffening or reinforcement of the elastic properties (Young's modulus) was observed in all samples”. For the same compound, the “maximum stiffening (percentage increase in Young's modulus after UV irradiation)” value [3, 4] was 348% and the “minimum stiffening or reinforcement (percentage increase in Young's modulus after UV irradiation)” value [3, 4] was 52%.
